The source of these data is US20070037785A1, “Novel dipeptidyl peptidase IV inhibitors used for functionally influencing different cells and treating immunological, infammatory, neuronal, and other diseases” (priority 2003, published 2007).

The target in one experiment is dipeptidyl peptidase IV (Homo sapiens, UniProt P27487). The experiment in a line: biochemical. The following applies: values marked with "*" are ID50 values; read-out: IC50DPIV, values marked with "*" = ID50.
dipeptidyl peptidase IV, sequence (P27487 whole entry, species assumed): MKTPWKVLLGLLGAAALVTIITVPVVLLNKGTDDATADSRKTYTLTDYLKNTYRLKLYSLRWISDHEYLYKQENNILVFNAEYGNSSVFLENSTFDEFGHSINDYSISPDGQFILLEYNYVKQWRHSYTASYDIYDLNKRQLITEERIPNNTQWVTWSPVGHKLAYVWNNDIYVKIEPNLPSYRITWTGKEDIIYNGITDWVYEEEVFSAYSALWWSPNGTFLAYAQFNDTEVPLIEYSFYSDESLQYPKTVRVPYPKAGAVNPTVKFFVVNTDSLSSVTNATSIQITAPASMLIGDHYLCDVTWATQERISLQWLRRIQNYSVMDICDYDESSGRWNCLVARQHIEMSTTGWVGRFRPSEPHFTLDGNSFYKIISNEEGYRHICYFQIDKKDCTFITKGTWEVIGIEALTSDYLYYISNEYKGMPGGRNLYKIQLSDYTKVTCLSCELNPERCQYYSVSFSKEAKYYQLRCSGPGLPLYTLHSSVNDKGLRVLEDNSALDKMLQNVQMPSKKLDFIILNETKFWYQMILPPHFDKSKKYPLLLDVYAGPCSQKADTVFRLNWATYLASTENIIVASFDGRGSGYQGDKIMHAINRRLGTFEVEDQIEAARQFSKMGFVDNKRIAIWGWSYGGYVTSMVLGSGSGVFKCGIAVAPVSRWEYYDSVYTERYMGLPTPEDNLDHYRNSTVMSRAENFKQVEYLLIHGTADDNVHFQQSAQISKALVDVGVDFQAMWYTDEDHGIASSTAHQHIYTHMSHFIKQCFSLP
As to `CCOC(=O)c1c(CNC(=O)CN2CCN(c3nc4c([nH]3)c(=O)[nH]c(=O)n4C)CC2)[nH]c2ccc(F)cc12` [D5.043], the IC50 was determined as 69.8 µM.

Regarding `CC12NCC(c3ccccc3)CC1O2` (centres unmarked) [D5.047], the IC50 is 96.6 µM.

In the case of `CS(=O)(=O)N1CCN(c2ccc([N+](=O)[O-])c(NCc3ccc(Cl)cc3)c2)CC1` [D5.053], the IC50 stood at 361 µM.

Turning to `O=C(Nc1cccc(/N=C/c2cc(/N=N\c3ccccc3Cl)ccc2O)c1)c1ccco1` [D6.003], the IC50 was 2.5 µM.

Still in this experiment, the particulars now being: values without "*" = IC-50; read-out: IC50DPIV.
In the case of `CCN(CC)C(=O)C1CCCN(c2ccc([N+](=O)[O-])cc2/C=N/NC(=O)c2cccc([N+](=O)[O-])c2)C1` (centres unmarked) [D5.036], the IC50 was 54 µM.

As for `O=C1CCCC(=O)N1c1ccc(NCCc2ccc(O)cc2)c([N+](=O)[O-])c1` [D5.037], the IC50 amounted to 54.8 µM.

As for `CCOC(=O)C(NC(=O)c1ccccc1)(N1CCOCC1)C(F)(F)F` (centres unmarked) [D5.041], the IC50 was determined as 61.9 µM.

Consider `CN(C)CCNc1nc2c(c(=O)n(C)c(=O)n2C)n1Cc1ccccc1Cl` [D6.006], for which the IC50 came out at 7.5 µM.

For the compound `CC(C)(C)C(=O)Nc1ccc(C(=O)Nc2nccs2)cc1` [D6.007], the IC50 stood at 7.5 µM.

Regarding `Cc1ccc(C2N(CC(C)C)CC(C(=O)c3c(C)cccc3C)N2CCCN2CCCC2=O)cc1` (centres unmarked) [D6.008], the IC50 was 7.5 µM.

Regarding `O=C(Nc1cccc(/N=C/c2cc(I)cc(I)c2O)c1)c1ccco1` [D6.010], the IC50 amounted to 9.2 µM.

Consider `Cc1cccc(-n2c(=O)c3c4c(sc3n3c(CC(C)C(=O)N5CCOCC5)nnc23)COC(C(C)C)C4)c1` (centres unmarked) [D6.012], for which the IC50 is 10.1 µM.

For the compound `Nc1nonc1-n1nnc(C(=O)NN=C2c3ccccc3-c3ccccc32)c1-c1ccccc1` [D6.013], the IC50 came out at 10.1 µM.

In the case of `CCOC(=O)CC(N)c1cccs1` (centres unmarked) [D6.018], the IC50 was 15.2 µM.

Take `CCCn1c(N2CCN(CC(=O)c3c(C)n(C)c4ccccc34)CC2)nc2c1c(=O)[nH]c(=O)n2C` [D6.019]: the IC50 was 15.2 µM.

On to `CC(C)(C)S(=O)(=O)C1=CN2C3=C(CCCC3)NC2C=C1` (centres unmarked) [D6.020], for which the IC50 is 15.6 µM.

Take `O=C(NCc1ccco1)C(=O)Nc1ccc(Br)cc1` [D6.021]: the IC50 came out at 16.1 µM.

On to `CCOC(=O)n1ccc(C(=O)Nc2ccccc2F)n1` [D6.026], for which the IC50 is 17.9 µM.

In the case of `CC1CCN(C(=O)/C(=C\c2ccco2)NC(=O)c2ccc(Cl)cc2)CC1` [D6.027], the IC50 worked out at 18.5 µM.

Take `CCn1c(N2CCN(c3ccc(OC)cc3)CC2)nc2c1c(=O)[nH]c(=O)n2C` [D6.028]: the IC50 was 19.2 µM.

For the compound `O=C(/C=C/c1ccco1)c1ccccc1` [D6.029], the IC50 was 19.7 µM.

Regarding `CCSc1nnc2n(-c3ccc(OC)cc3)c(=O)c3c4c(sc3n12)CCCC4` [D6.031], the IC50 came out at 20.2 µM.

As to `Cc1cc([N+](=O)[O-])c(C)cc1-c1ccc(/C=C/c2cc(C(F)(F)F)nc(=O)[nH]2)o1` [D6.034], the IC50 came out at 20.6 µM.

For the compound `Cc1ccccc1C(=O)N/N=C/c1ccc([N+](=O)[O-])o1` [D6.036], the IC50 is 20.9 µM.

With `CC(C)C1Cc2c(sc3c2c(=O)n(Cc2ccccc2)c2nnc(SCC(=O)O)n32)CO1` (centres unmarked) [D6.037], the IC50 is 18.9 µM.

`CNc1nc2c(c(=O)[nH]c(=O)n2C)n1Cc1ccccc1Cl` [D6.043]: the IC50 is 27.8 µM.

Consider `Cc1cc2ccccc2n1CCNC(=O)c1cccs1` [D6.044], for which the IC50 worked out at 28.8 µM.

On to `CCCn1c(N2CCN(CC(=O)c3c[nH]c4ccccc34)CC2)nc2c1c(=O)[nH]c(=O)n2C` [D6.046], for which the IC50 came out at 30.8 µM.

For `N#Cc1c(CC(=O)C(C(F)(F)F)C(F)(F)F)sc2c1CCC2` [D6.047], the IC50 turned out to be 30.9 µM.

For `CCCC(=O)Cc1ccc(N(C(=O)CCC)S(=O)(=O)c2cccs2)cc1` [D6.048], the IC50 turned out to be 31.3 µM.

On to `CN(/N=C/c1sc(=O)[nH]c1Cl)c1ccccc1` [D6.049], for which the IC50 was 32.4 µM.

On to `Cc1ccc(C(=O)C2(C)N(O)C(C)C(c3cccs3)=[N+]2[O-])cc1` (centres unmarked) [D6.053], for which the IC50 stood at 34.1 µM.

With `CCOC(=O)c1c(C)oc2c1c1c(c3ccccc32)OCN(C2CCS(=O)(=O)C2)C1` (centres unmarked) [D6.054], the IC50 worked out at 34.2 µM.

`CC1=C(C#N)C(=O)N(CCCO)C(=O)/C1=C\c1ccc(-c2cc(C)c(C)cc2[N+](=O)[O-])o1` [D6.055]: the IC50 turned out to be 34.8 µM.

Consider `CCOC(=O)c1cn(-c2ccc(N3C(=O)CSCC3=O)cc2)nc1C` [D6.056], for which the IC50 was 37.4 µM.

As for `Cc1ccccc1NC(=O)CSC1=NCCN1` [D6.057], the IC50 is 38.1 µM.

On to `N#Cc1c(NC(=O)C(C(F)(F)F)C(F)(F)F)sc2c1CCCC2` [D6.058], for which the IC50 was 39.5 µM.

On to `CCc1c(C)[nH]c2c1/C(=N\OC(=O)C(C)C)CCC2` [D6.062], for which the IC50 was 43.8 µM.

`Cn1c(=O)c2c(nc(NCCO)n2Cc2ccccc2Cl)n(C)c1=O` [D6.063]: the IC50 came out at 44 µM.

As to `C=CCOC(=O)c1cc(-c2ccc(/C=C3/C(=O)N(CCCO)C(=O)C(C#N)=C3C)o2)ccc1Cl` [D6.065], the IC50 stood at 44.6 µM.

For the compound `Cc1ccc(C(=O)N/C(=C\c2ccco2)C(C)N2CCOCC2)cc1C` (centres unmarked) [D6.067], the IC50 was determined as 46.5 µM.

In the case of `CC1C(=O)N(Cc2ccccc2)C(=O)c2c1nc(N1CCNCC1)n2Cc1ccccc1` (centres unmarked) [D6.069], the IC50 stood at 48.3 µM.

For `CCCCOC(=O)c1cc(-c2ccc(/C=C3/C(=O)N(CC(C)O)C(=O)C(C#N)=C3C)o2)ccc1Cl` (centres unmarked) [D6.070], the IC50 amounted to 49 µM.

For `CC1=C(C#N)C(=O)N(CCO)C(=O)/C1=C\c1ccc(-c2cc(Cl)ccc2Cl)o1` [D6.071], the IC50 was 51.7 µM.

For `Cc1ccc(Cn2cccc2/C=N/NC(=S)Nc2ccc(C)c(C)c2)cc1` [D6.078], the IC50 was 55.2 µM.

Regarding `CCCc1cccc(/C=N/NC(=O)c2cc(-c3ccc(F)cc3)n[nH]2)c1O` [D6.079], the IC50 was found to be 55.3 µM.

For the compound `CCOc1ccc(/C=N/NC(=O)c2cc(-c3c(OC)ccc4ccccc34)n[nH]2)cc1` [D6.081], the IC50 came to 56.3 µM.

In the case of `CCOC(=O)c1cc(-c2ccc(/C=C3/C(=O)NC(=O)C(C#N)=C3C)o2)ccc1Cl` [D6.082], the IC50 was 56.7 µM.

Turning to `CC1CCc2c(sc(NC(=O)C(C(F)(F)F)C(F)(F)F)c2C#N)C1` (centres unmarked) [D6.083], the IC50 was determined as 59.8 µM.

In the case of `Cc1ccc(/C=N/NC(=O)c2cccc(I)c2)o1` [D6.084], the IC50 stood at 57.4 µM.

For the compound `CCC(N)C(=O)c1cccs1` (centres unmarked) [D6.085], the IC50 worked out at 61.4 µM.

`CCOC(=O)c1ccc(-c2ccc(/C=C3\C(=O)N(CCO)C(=O)C(C#N)=C3C)o2)cc1` [D6.087]: the IC50 came to 65.9 µM.

Regarding `CC1=C(C#N)C(=O)N(CC(C)O)C(=O)/C1=C/c1ccc(-c2ccc(Br)cc2)o1` (centres unmarked) [D6.089], the IC50 is 73.8 µM.

`Cc1ccc(C(=O)N/C(=C/c2ccco2)C(=O)N(C)C)cc1` [D6.091]: the IC50 is 47.7 µM.

Turning to `CCCOC(=O)c1cc(-c2ccc(/C=C3\C(=O)N(CCCO)C(=O)C(C#N)=C3C)o2)ccc1Cl` [D6.092], the IC50 came out at 76.3 µM.

For the compound `CCCOC(=O)c1cc(-c2ccc(/C=C3/C(=O)N(CC(C)O)C(=O)C(C#N)=C3C)o2)ccc1Cl` (centres unmarked) [D6.095], the IC50 was 82.2 µM.

As for `COc1ccc(-c2ccc(C3Nc4ccc5ccccc5c4C4=C3C(=O)CC(C)(C)C4)o2)cc1Cl` (centres unmarked) [D6.098], the IC50 is 87.9 µM.

Take `CC1=C(C#N)C(=O)N=C(O)/C1=C\c1ccc(-c2ccc(Cl)cc2Cl)o1` [D6.101]: the IC50 was found to be 95.8 µM.

On to `COC(=O)c1ccc(NC(=O)/C(=C\c2cccc([N+](=O)[O-])c2)NC(=O)c2ccc(Br)o2)cc1` [D6.108], for which the IC50 was 115 µM.
